Measured values published in US20070281302A1 (priority 1998, published 2007).
Entries after “also recorded” stand apart in the source; their conditions may differ. No end group written: not given here.

Legend:
[1] = test system: spores of B. thuringiensis subsp. kurstaki; type: binding, Bacillus thuringiensis
B. cereus T spores = type: binding, Bacillus cereus
[2] = test system: spores of 15 of the other Bacillus strains; type: binding
spores of B. cereus T = type: binding, Bacillus cereus
[3] = test system: spores of the other Bacillus strains; type: binding
[4] = test system: B. anthracis spores (Sterne, delta-Ames); type: binding, Bacillus anthracis
[5] = test system: B. thuringiensis subsp. kurstaki spores; type: binding, Bacillus thuringiensis
[6] = test system: B. anthracis (Sterne and ΔAmes) spores; type: binding, Bacillus anthracis
[7] = test system: Bacillus spores of each experiment shown in FIG. 3; type: binding
B. cereus T spore = type: binding, Bacillus cereus
spores of B. subtilis = type: binding, Bacillus subtilis
B. subtilis spores = type: binding, Bacillus subtilis
[8] = test system: B. anthracis spores (delta-Ames, Sterne); type: binding, Bacillus anthracis
[9] = test system: vegetative cells of the Sterne and ΔAmes strains; type: binding, Bacillus anthracis
spores of B. cerues T = type: binding, Bacillus cereus

Substance: ATYPLPIRGGGC-PE (PE conjugate)
- fluorescent labeling of spores [1]: low-level but detectable binding
- binding of the conjugate to spores (B. cereus T spores): limited binding
- binding relative to TYPLPIRGGGC-PE (B. cereus T spores): only slightly enhanced
- binding of the conjugate to spores [2]: did not permit detectable binding; also recorded: No peptide-conjugate binding was observed
- fluorescent labeling of spores (spores of B. cereus T): low-level but detectable binding
- fluorescent labeling of spores [3]: not other strains; also recorded: essentially nonfluorescent
- fluorescent labeling of spores [4]: completely encircled by fluorescent ligand; also recorded: readily detectable
- binding of the conjugate to spores [5]: limited binding
- binding relative to TYPLPIRGGGC-PE [5]: only slightly enhanced
- binding of the conjugate to spores [6]: extensive binding
- enhancement of binding relative to TYPLPIRGGGC-PE [6]: ~10 fold

Substance: HWHHHGHGGGC (also: PE conjugate) [HWHHHGHGGGC-PE]
- spore binding of control peptide-PE conjugates [7]: No significant binding

Substance: ILPRPYTGGGC (also: PE conjugate) [ILPRPYTGGGC-PE]
- spore binding of control peptide-PE conjugates [7]: No significant binding

Substance: LLSPLHR [Sequence 6 (Table 5)]
- number of phage containing the sequence (B. cereus T spore): 6. (2)

Substance: NHFL (B. subtilis)
- binding to the spores (ligand quality) (spores of B. subtilis): poor ligand

Substance: NHFLP (B. subtilis)
- binding to the spores (ligand quality) (spores of B. subtilis): tight binding

Substance: NHFLPKV [Isolate 4 (Table 1)]
- binding of the peptide to the spore (B. subtilis spores): bound tightly
- eluted phage examined that contained the sequence (B. subtilis spores): Seven of the ten
- enrichment of this phage (B. subtilis spores): 700 fold

Substance: SLLPGLPGGGC-PE (PE conjugate)
- binding of the conjugate to spores (B. cereus T spores): extensive binding
- binding of the conjugate to spores [2]: No peptide-conjugate binding was observed
- binding of the conjugate to spores [5]: extensive binding
- binding of the conjugate to spores [6]: no binding

Substance: THRLPSR [Sequence 1 (Table 5)]
- number of phage containing the sequence (B. cereus T spore): 1. (2)

Substance: TYPIPFR [Isolate 6 (Table 3)]
- number of phage containing the sequence [8]: three

Substance: TYPIPIR [Isolate 5 (Table 3)]
- number of phage containing the sequence [8]: three

Substance: TYPLPIRGGGC-PE (PE conjugate)
- binding of the peptide-PE conjugate to spores, compared with B. anthracis spores (B. cereus T spores): weaker (or less extensive)
- binding of the peptide-PE conjugate to spores [2]: did not bind
- binding of the peptide-PE conjugate to spores at the highest concentration [2]: minimal binding
- binding to vegetative cells [9]: did not bind
- binding of the peptide-PE conjugate to spores, compared with B. anthracis spores [5]: weaker (or less extensive)
- binding of the peptide-PE conjugate to spores [6]: concentration-dependent binding
- effect of bovine serum albumin on conjugate binding [6]: not inhibited

Substance: TYPVPHR [Isolate 9 (Table 3)]
- number of phage containing the sequence [8]: once

Substance: WSPLHKH [Sequence 8 (Table 5)]
- binding to spores (spores of B. cerues T): tight binding
- eluted phage that contained the sequence (spores of B. cerues T): Six of the twenty
- enrichment of this phage (spores of B. cerues T): 300 fold
